# Earlier results in patent US9642863B2, “Methods for treating chronic or unresolvable pain and/or increasing the pain threshold in a subject and pharmaceutical compositions for use therein” (White Mountain Pharma, Inc., priority 2010, dated 2017).
# What was measured:
# [1] = genotypic females dosed with testosterone, 36 months
# [2] = test system: chronic pain subjects on maintenance opioids; details: four patients, testosterone adjunctive to primary opioid therapy, anecdotal
# women with fibromyalgia = details: female fibromyalgia patients, transdermal testosterone
# rats = details: treatment with testosterone
# [3] = test system: female-to-male transsexuals; details: doses of testosterone at or above the male reference range
compound,measurement,setting,value
C[C@]12CC[C@H]3[C@@H](CCC4=CC(=O)CC[C@@]43C)[C@@H]1CC[C@@H]2O [testosterone],stable serum total testosterone levels,[1],about 620+/−130 ng/dL
same,quality of life,[2],improved quality of life
same,fibromyalgia muscle tender point pain,women with fibromyalgia,significantly improve
same,pain responses to the formalin test,rats,decreased pain responses
same,side effects,[3],develop hirsutism and male-like increased risk for cardiovascular disease and diabetes
